Source: patent US6702987B1, “Bioactive porous partition members” (Dade Behring Inc., priority 1994, dated 2004)

Legend:
[1] = cited from earlier work
[2] = Storage stability of agent incorporated in porous partition member and dried; assay type: physicochemical
Experimental: ADP is unstable in aqueous solution having a useful life of only about 4 hours.
Epinephrine is sensitive to aspirin induced defects in platelets.
The concentration of ADP solution used for incorporation into the membrane was 50 mg/ml, and that of the epinephrine solution was 10 mg/ml.
A strip of membrane was spot-coated with 1 μL of ADP or epinephrine solution. Therefore, each membrane placed in the Test Cartridge contained 50 μg of ADP or 10 μg of epinephrine. The membrane was then spot-coated with 1 μL of fibrillar Type I collagen suspension from horse tendon available from Nycomed AG.
Spot-coating involved putting spots of liquid agent on a strip of membrane. After spot-coating, the membrane was placed in a forced air drying chamber for 25 minutes for drying of the ADP or epinephrine, and formation of a collagen film on the coated areas. Once dried, an aperture was punched in the center of the spot and a membrane disk was cut from the membrane strip.

Row | Structure (SMILES) | stability in solution ([1]; in solution) | stability when incorporated in a porous partition member and dried ([2]; incorporated in porous partition member and dried) | useful life in aqueous solution ([1]; aqueous solution) | stable when incorporated in a porous partition member ([2]; incorporated in porous partition member, dried, stored at about 4° C. under hermetically sealed conditions)
1 | CNC[C@H](O)c1ccc(O)c(O)c1 [epinephrine] | unstable | good stability | – | –
2 | Nc1ncnc2c1ncn2[C@@H]1O[C@H](COP(=O)(O)OP(=O)(O)O)[C@@H](O)[C@H]1O [ADP, adenosine 5′-diphosphate] | – | – | about 4 hours | about one and one-half
